{"source": "patent US20240238268A1", "about": "“TREATMENTS AND METHODS FOR TREATING ALZHEIMER'S DISEASE” (Board of Supervisors of Louisiana State University and …, priority 2021, published 2024)", "type_in_all_cases": "in vivo, mouse", "key": {"[1]": {"system": "NOTCH1", "assay": "NOTCH1 protein level in brain, capillary-based immunoassay", "conditions": "aged C57 female mice; 10 mg/kg, IP, 7 days", "experimental": "NOTCH1 protein level in cortex, FIG. 13A, and hippocampus, FIG. 13B, was decreased in aged 3xTg-AD female mice v. male counterparts. Treatment with specific PRMT4 specific inhibitor (TP-064, 30 mg/kg, 7 days, IP) or AAV knockdown of PRMT4 enhanced NOTCH1 protein level in cortex, […], and hippocampus, […], in aged 3xTg-AD female mice. Relative NOTCH1 protein (˜110 kDa) level was measured by capillary-based immunoassay and normalized to total protein. * p<0.05 v. control male mice evaluated by unpaired t-test in FIGS. 13A and 13B. * p<0.05 compared to C57, #p<0.05 compared to 3xTg-AD+TP-064, $p<0.05 compared to 3xTg-AD+AAV, evaluated by one-way ANOVA with Tukey's post-hoc analyses in FIGS. 13C and 13D.\n(§1) FIGS. 16A-16G show NOTCH1 inhibition (via crenigacestat) decreased ZO-1 and occluding and AAV knockdown of PRMT4 enhanced ZO-1 and occludin. […] C57 female mice. FIGS. 16B and 16C show crenigacestat (10 mg/kg, IP, 7 days) reduced NOTCH1 (110 kDa) protein level in the cortex and hippocampus of aged C57 female mice. AAV knockdown of PRMT4 increased NOTCH1 protein level. FIGS. 16D-16G show ZO-1 (220 kDa), and occludin (60 kDa) tight junctional proteins were decreased in the cortex and hippocampus in presence of NOTCH1 inhibitor in C57. PRMT4-AAV increased the expression of ZO-1 and occludin in aged 3xTg-AD female mice. Protein level was measured by capillary-based immunoassay and normalized to total protein. * p<0.05 compared to C57, #p<0.05 compared to 3xTg-AD, $p<0.05 compared to 3xTg-AD+AAV as evaluated by one-way ANOVA with Tukey's post-hoc analyses.\nCapillary-phoresis immunoassay via ProteinSimple®: Quantification of all protein targets was achieved using Simple Western analysis in a Jess™ apparatus per the manufacturer's protocol (ProteinSimple, Bio-techne, Minneapolis, MN). […] Following homogenization and centrifugation (10,000×g, 5 min, 4° C.), protein concentration was determined in tissue protein supernatant samples using DC Protein Assay (Cat. No. 5000112, Bio-Rad Laboratories, Hercules, California) according to manufacturer instructions. […] Antibody diluent (ProteinSimple, Bio-techne, Minneapolis, MN) was used for all antibody dilutions as follows: PRMT4 (1:50, RRID: AB_2068436), PRMT6 (1:100, Cell Signaling Technology cat. 14641), eNOS (1:200, RRID: AB_10850618), nNOS (1:100, RRID: AB_2152488), iNOS (1:100, RRID: AB_10000625), DDAH2 (1:50, RRID: AB_2640442) Antibodies were detected using HRP-conjugated secondary anti-rabbit, and -mouse. Relative protein levels were calculated by measuring the area under the peak of a chemiluminescent chromatogram and normalized to total capillary chemiluminescence for a given sample. […]"}, "[2]": {"system": "ZO-1", "assay": "ZO-1 tight junction protein level in brain, capillary-based immunoassay", "conditions": "C57 mice; 10 mg/kg, IP, 7 days", "experimental": "as §1\n(§2) Capillary-phoresis immunoassay via ProteinSimple®: Quantification of all protein targets was achieved using Simple Western analysis in a Jess™ apparatus per the manufacturer's protocol (ProteinSimple, Bio-techne, Minneapolis, MN). […] Following homogenization and centrifugation (10,000×g, 5 min, 4° C.), protein concentration was determined in tissue protein supernatant samples using DC Protein Assay (Cat. No. 5000112, Bio-Rad Laboratories, Hercules, California) according to manufacturer instructions. […]"}, "[3]": {"system": "occludin", "assay": "Occludin tight junction protein level in brain, capillary-based immunoassay", "conditions": "C57 mice; 10 mg/kg, IP, 7 days", "experimental": "as §1, §2"}, "[4]": {"system": "C57 mice", "assay": "Neurovascular coupling: microvessel diameter, two-photon laser scanning microscopy, C57 mice", "conditions": "10 mg/kg, 7 days, IP"}}, "data": [{"smiles": "C[C@H](NC(=O)CCC(F)(F)F)C(=O)N[C@@H]1C(=O)N(CCO)c2ncccc2-c2ccccc21", "note": "[Crenigacestat]", "values": [{"measurement": "NOTCH1 protein level in cortex", "setting": "[1]", "result": "reduced"}, {"measurement": "NOTCH1 protein level in hippocampus", "setting": "[1]", "result": "reduced"}, {"measurement": "ZO-1 protein level in cortex", "setting": "[2]", "result": "decreased"}, {"measurement": "ZO-1 protein level in hippocampus", "setting": "[2]", "result": "decreased"}, {"measurement": "occludin protein level in cortex", "setting": "[3]", "result": "decreased"}, {"measurement": "occludin protein level in hippocampus", "setting": "[3]", "result": "decreased"}, {"measurement": "microvessel diameter", "setting": "[4]", "result": "decrease"}]}]}
